{"source": "paper PMC9664868", "about": "“Dephospho-Coenzyme A Kinase Is an Exploitable Drug Target against Plasmodium falciparum: Identification of Selective Inhibitors by High-Throughput Screening of a Large Chemical Compound Library” (Antimicrobial Agents and Chemotherapy, 2022)", "key": {"PfDPCK": {"target": "PfDPCK (Plasmodium falciparum, UniProt Q8IL34)", "sequence (Q8IL34 entry or part of it)": "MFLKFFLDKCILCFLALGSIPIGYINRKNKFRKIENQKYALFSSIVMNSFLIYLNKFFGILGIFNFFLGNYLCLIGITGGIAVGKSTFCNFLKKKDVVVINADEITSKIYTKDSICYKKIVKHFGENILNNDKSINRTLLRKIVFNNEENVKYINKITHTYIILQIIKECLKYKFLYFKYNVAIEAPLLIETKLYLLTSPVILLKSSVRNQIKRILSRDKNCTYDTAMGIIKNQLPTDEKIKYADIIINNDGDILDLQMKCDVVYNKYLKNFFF", "assay": "PfDPCK inhibition, enzyme-coupled fluorescence ADP detection assay (HTS and IC50 determination)", "format": "biochemical", "settings": "Table 2, PfDPCK inhibitor scaffolds Gr4, Gr5, Gr8; read-out: IC50", "protocol": "High-throughput screening against recombinant PfDPCK was performed using the Drug Discovery Initiative (DDI) full library, available from The University of Tokyo, composed of approximately 210,000 compounds. The primary assay was performed on 1,536-well white plate format with a final volume of 2 μL/well, containing 10 μM test compounds using a Multidrop Combi reagent dispenser (Thermo Fisher Scientific, Waltham, MA). The reaction was conducted in the assay buffer described above with 100 μM ATP and 50 μM dephospho-CoA. The assay was carried out at room temperature for 4 h in a closed plastic container with wet tissues. The reaction was stopped, and produced ADP was quantified using an enzyme-coupled fluorescence ADP detection assay, using PHERAstar microplate reader (BMG Labtech, Offenburg, Germany) with excitation at 540 nm and emission at 590 nm, as previously described ([17]). The inhibition level was calculated as the percentage inhibition of DPCK activity with each compound compared to the activity with only dimethyl sulfoxide (DMSO) as control (no inhibition) and that with no enzyme as 100% inhibition. IC50 values of the hit compounds were determined under the same assay conditions for the screening: Z′ factor, signal-to-background ratio (S/B), signal-to-noise ratio (S/N), and coefficient of variation (CV) were calculated to estimate the quality of screening system as previously described ([18], [38]).\nThe primary hits were reassayed in quadruplicate (n = 4) as in the primary screening. We next tested the confirmed secondary hits to exclude false positives that inhibit coupled fluorescence assay, but not PfDPCK. After exclusion of false positives, all tertiary hits were tested against human HsCOASY in the counterassay to exclude compounds that inhibit both PfDPCK and HsCOASY. The compounds showing >10% inhibition against HsCOASY were excluded from further studies. The IC50 values of the hit compounds were determined under the same assay conditions described as above for the primary screening, with the serially diluted compounds at 20, 10, 2.5, 0.5, and 0.1 μM at final concentrations. The assay was conducted in quadruplicate for each dilution, and IC50 values were calculated using GraphPad Software (San Diego, California USA)."}, "[1]": {"system": "P. falciparum drug-sensitive 3D7 strain", "assay": "Erythrocytic-stage parasite growth inhibition, diaphorase-coupled LDH assay, 3D7", "format": "cell-based, Plasmodium falciparum", "settings": "Plasmodium falciparum, 3D7; Table S1; means ± SEM; read-out: IC50 (μM) Pf cell 3D7", "protocol": "(§1) Selected hit compounds were also tested against erythrocytic-stage parasites of P. falciparum drug-sensitive 3D7 and drug-resistant Dd2 strains ([39]). For the phenotypic assay, parasite cultures were synchronized with 5% (wt/vol) D-sorbitol as previously described ([40]). A synchronized culture containing ring-stage parasites of 0.3% parasitemia was initiated with a culture volume of 25 μL/well on a 384-well plate. A series of diluted compounds (at final concentrations of 50, 10, 2, 0.4, and 0.08 μM) were used to calculate IC50 values. Mefloquine at 50 μM and atovaquone at 20 μM were used as no-growth control (100% inhibition). After 72 h of incubation, parasite growth was measured by diaphorase-coupled lactate dehydrogenase (LDH) assay as previously described ([41]). Absorbance at 650 nm was measured using SpectraMax Paradigm multimode microplate reader (Molecular Devices, San Jose, CA, USA). The IC50 values were calculated as described above."}, "[2]": {"system": "P. falciparum drug-resistant Dd2 strain", "assay": "Erythrocytic-stage parasite growth inhibition, diaphorase-coupled LDH assay, Dd2", "format": "cell-based, Plasmodium falciparum", "settings": "Plasmodium falciparum, DD2; Table S1; means ± SEM; read-out: IC50 (μM) Pf cell Dd2", "protocol": "as §1"}}, "data": [{"molecule": "CC(C)(C)c1cc(C(=O)Cn2c(NCCO)nc3ccccc32)cc(C(C)(C)C)c1O", "note": "[Compound A-15]", "values": [{"measurement": "IC50", "setting": "PfDPCK", "value": "1.93 ± 0.04", "unit": "µM"}, {"measurement": "IC50", "setting": "[1]", "value": "9.78 ± 0.23", "unit": "µM"}, {"measurement": "IC50", "setting": "[2]", "value": "9.26 ± 0.26", "unit": "µM"}]}]}
